The text below walks through data of ChEMBL document CHEMBL2150961, “Serum stability of selected decapeptide agonists of KISS1R using pseudopeptides” (Bioorg Med Chem Lett, 2012).

Series [1] addresses T1, KiSS-1 receptor (Homo sapiens, UniProt Q969F8). Description: Agonist activity at human KISS1R assessed as induction of intracellular calcium mobilization by fluorometric analysis. In kind it is functional, cell-based.
Series [2] deals with T1, KiSS-1 receptor. Description: Binding affinity to human KISS1R.
The nature of series [3]: Drug metabolism in mouse plasma at 0.1 mM after 1 min by HPLC-ESI-MS analysis. In kind it is ADME, cell-free. Conditions: read-out: Drug metabolism.
Series [4] can be described thus: Metabolic stability of the compound in human serum assessed as compound residual ratio after 5 mins. In kind it is ADME, cell-free. Conditions: read-out: Stability.
A short description of series [5]: Metabolic stability of the compound in human serum assessed as compound residual ratio after 10 mins. The series is classed as ADME, cell-free. Particulars: read-out: Stability.
A short description of series [6]: Metabolic stability of the compound in human serum assessed as compound residual ratio after 15 mins. Particulars: read-out: Stability. In kind it is ADME, cell-free.
Series [7] is described as follows: Half life in human serum. The series is classed as ADME, cell-free.
For series [8], the target named is KiSS-1 receptor (Rattus norvegicus, UniProt Q924U1). Description: Binding affinity to rat KISS1R.
KiSS-1 receptor (Rattus norvegicus, UniProt Q924U1), sequence (Q924U1 whole entry): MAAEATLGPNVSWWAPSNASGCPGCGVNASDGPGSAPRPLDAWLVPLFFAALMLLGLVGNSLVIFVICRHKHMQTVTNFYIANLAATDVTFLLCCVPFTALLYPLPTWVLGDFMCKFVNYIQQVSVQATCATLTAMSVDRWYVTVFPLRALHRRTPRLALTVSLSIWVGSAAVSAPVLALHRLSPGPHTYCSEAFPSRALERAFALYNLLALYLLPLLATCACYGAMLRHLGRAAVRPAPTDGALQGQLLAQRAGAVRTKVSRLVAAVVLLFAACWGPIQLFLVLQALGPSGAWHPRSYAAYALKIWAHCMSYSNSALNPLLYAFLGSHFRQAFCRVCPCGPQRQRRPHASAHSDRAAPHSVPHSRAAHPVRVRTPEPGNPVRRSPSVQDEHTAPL
Series [9] in a line: Metabolic stability of the compound in mouse serum assessed as compound residual ratio at 0.1 mM after 1 hr. The series is classed as ADME, cell-free. Conditions: read-out: Stability.
Series [10] has as its system Serum. Description: Metabolic stability of the compound in human serum. In kind it is ADME, cell-free.

SMILES strings stand for the structures. Starred links: 1 amine or outer side, 2 acyl side, 3 side chain; linkers in the order of their positions; H or OH if unused. Non-standard residues stand in square brackets, D forms with d. Residues, ends and D or L forms follow the SMILES beside them. X1 = O=C(CNC(=S)[C@H](Cc1ccccc1)N[*:1])[*:2]; 2Nal = N[C@@H](Cc1ccc2ccccc2c1)C(=O)O; Arg(Me) = CNC(=N)NCCC[C@H](N)C(=O)O; 3Pal = N[C@@H](Cc1cccnc1)C(=O)O; 4Pal = N[C@@H](Cc1ccncc1)C(=O)O; d4Pal = N[C@H](Cc1ccncc1)C(=O)O; azaGly = NNC(=O)O

T1 sequence (Q969F8 whole entry): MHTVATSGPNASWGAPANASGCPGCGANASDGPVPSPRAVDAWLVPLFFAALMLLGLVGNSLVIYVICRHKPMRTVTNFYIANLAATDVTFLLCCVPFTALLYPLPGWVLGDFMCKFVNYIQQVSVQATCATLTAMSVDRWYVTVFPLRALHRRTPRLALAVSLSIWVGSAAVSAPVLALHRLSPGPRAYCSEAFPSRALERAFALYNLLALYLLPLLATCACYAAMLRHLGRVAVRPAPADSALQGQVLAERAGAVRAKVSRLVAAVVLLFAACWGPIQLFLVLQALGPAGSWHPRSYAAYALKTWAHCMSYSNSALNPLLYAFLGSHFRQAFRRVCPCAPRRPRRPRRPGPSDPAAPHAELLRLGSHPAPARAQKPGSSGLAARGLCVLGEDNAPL

As for `CC(C)C[C@H](NC(=O)CNC(=O)[C@H](Cc1ccccc1)NC(=O)[C@H](CO)NC(=O)[C@H](CC(N)=O)NC(=O)[C@H](Cc1c[nH]c2ccccc12)NC(=O)[C@H](CC(N)=O)NC(=O)[C@@H](N)Cc1ccc(O)cc1)C(=O)N[C@@H](CCCNC(=N)N)C(=O)N[C@@H](Cc1ccccc1)C(N)=O` [KISSPEPTIN-10], in series [1], the EC50 is 0.049 nM. For the same compound, the IC50 in series [2] was 0.082 nM. In addition, the metabolised at 1 min, 100 µM in series [3] was greater than 50%. In addition, the remaining at 5 min in series [4] is 0.9%. The remaining at 10 min in [5] was less than 0.5%. Besides, in [6], the remaining at 0.25 h was less than 0.5%. Also, the half-life in series [7] is less than 0.0167 h.

In the case of `CNC(=N)NCCC[C@H](NC(=O)[C@H](CC(C)C)NC(=O)NNC(=O)[C@H](Cc1ccccc1)NC(=O)[C@H](CO)NC(=O)[C@H](CC(N)=O)NC(=O)[C@H](Cc1cccnc1)NC(=O)[C@H](CC(N)=O)NC(=O)[C@H](N)Cc1ccc(O)cc1)C(=O)N[C@@H](Cc1ccccc1)C(N)=O` (H-[dY]N[3Pal]NSF[azaGly]L[Arg(Me)]F-NH2), the EC50 in series [1] is 0.24 nM. Also, the IC50 in series [2] was 0.7 nM; in series [8] it was 0.89 nM. For the same compound, the remaining at 1 h, 100 µM in series [9] amounted to 50.6%.

Regarding `CNC(=N)NCCC[C@H](NC(=O)[C@H](CC(C)C)NC(=O)NNC(=O)[C@H](Cc1ccccc1)NC(=O)[C@H](CO)NC(=O)[C@H](CC(N)=O)NC(=O)[C@H](Cc1c[nH]c2ccccc12)NC(=O)[C@H](CC(N)=O)NC(=O)[C@H](N)Cc1ccc(O)cc1)C(=O)N[C@@H](Cc1ccccc1)C(N)=O`, the IC50 in [2] stood at 0.16 nM. Also, the remaining at 1 h, 100 µM in series [9] was found to be 39.5%.

Regarding `CNC(N)=NCCC[C@H](NC(=O)[C@H](CC(C)C)NC(=O)NNC(=O)[C@H](Cc1ccccc1)NC(=O)[C@H](CO)NC(=O)[C@H](CC(N)=O)NC(=O)[C@@H](Cc1c[nH]c2ccccc12)NC(=O)[C@H](CC(N)=O)NC(=O)[C@H](N)Cc1ccc(O)cc1)C(=O)N[C@@H](Cc1ccccc1)C(N)=O`, in series [1], the EC50 worked out at 0.072 nM. The compound further registered an IC50 in series [2] of 0.19 nM. Moreover, the remaining at 1 h, 100 µM in [9] is 56.4%.

Turning to `CNC(N)=NCCC[C@H](NC(=O)[C@H](CC(C)C)NC(=O)CC(=O)N[C@H](Cc1ccccc1)NC(=O)[C@H](CO)NC(=O)[C@H](CC(N)=O)NC(=O)[C@H](Cc1c[nH]c2ccccc12)NC(=O)[C@H](CC(N)=O)NC(=O)[C@H](N)Cc1ccc(O)cc1)C(=O)N[C@@H](Cc1ccccc1)C(N)=O`, in series [1], the EC50 amounted to 0.95 nM. Besides, the figures for the IC50 in series [2] and in series [8] were 0.51 nM and 2.9 nM, respectively. Further, in [9], the remaining at 1 h, 100 µM stood at 46.8%.

As to `CNC(N)=NCCC[C@H](NC(=O)[C@H](CC(C)C)NC(=O)NNC(=O)[C@H](Cc1ccccc1)NC(=O)[C@H](CO)NC(=O)[C@H](CC(N)=O)NC(=O)[C@H](Cc1ccncc1)NC(=O)[C@H](CC(N)=O)NC(=O)[C@H](N)Cc1ccc(O)cc1)C(=O)N[C@@H](Cc1ccccc1)C(N)=O` (H-[dY]N[4Pal]NSF[azaGly]L[Arg(Me)]F-NH2), in series [1], the EC50 amounted to 0.11 nM. In addition, the IC50 came to 0.3 nM in series [2] and 0.28 nM in series [8]. Besides, the remaining at 1 h, 100 µM in [9] came out at 30.7%.

In the case of `CNC(N)=NCCC[C@H](NC(=O)[C@H](CC(C)C)NC(=O)NNC(=O)[C@H](Cc1ccccc1)NC(=O)[C@H](CO)NC(=O)[C@H](CC(N)=O)NC(=O)[C@H](CC1CCCCC1)NC(=O)[C@H](CC(N)=O)NC(=O)[C@H](N)Cc1ccc(O)cc1)C(=O)N[C@@H](Cc1ccccc1)C(N)=O`, the EC50 in series [1] was determined as 0.1 nM. Besides, the IC50 was 0.19 nM in series [2] and 0.24 nM in series [8]. Further, the remaining at 1 h, 100 µM in series [9] came out at 32%.

For `CNC(N)=NCCC[C@H](NC(=O)[C@H](CC(C)C)NC(=O)CNC[C@H](Cc1ccccc1)NC(=O)[C@H](CO)NC(=O)[C@H](CC(N)=O)NC(=O)[C@H](Cc1c[nH]c2ccccc12)NC(=O)[C@H](CC(N)=O)NC(=O)[C@H](N)Cc1ccc(O)cc1)C(=O)N[C@@H](Cc1ccccc1)C(N)=O`, the EC50 in [1] came out at 0.62 nM. The IC50 in series [2] amounted to 0.61 nM; in series [8], 1.4 nM. Moreover, in [9], the remaining at 1 h, 100 µM is 12.1%.

With `CNC(N)=NCCC[C@H](NC(=O)[C@H](CC(C)C)NC(=O)NNC(=O)[C@H](Cc1ccccc1)NC(=O)[C@H](CO)NC(=O)[C@H](CC(N)=O)NC(=O)[C@H](CO)NC(=O)[C@H](CC(N)=O)NC(=O)[C@H](N)Cc1ccc(O)cc1)C(=O)N[C@@H](Cc1ccccc1)C(N)=O` (H-[dY]NSNSF[azaGly]L[Arg(Me)]F-NH2), in series [1], the EC50 is 0.73 nM. Further, the figures for the IC50 in series [2] and in series [8] were 0.49 nM and 0.43 nM, respectively. The remaining at 1 h, 100 µM in series [9] was 50%. Moreover, the remaining at 5 min in series [4] is 86.5%. For the same compound, the remaining at 10 min in series [5] came to 85.3%. Further, the remaining at 0.25 h in [6] is 86.4%. The Stability result in series [10] was “Stable”.

For `CNC(N)=NCCC[C@H](NC(=O)[C@H](CC(C)C)NC(=O)CNC(=S)[C@H](Cc1ccccc1)NC(=O)[C@H](CO)NC(=O)[C@H](CC(N)=O)NC(=O)[C@H](Cc1c[nH]c2ccccc12)NC(=O)[C@H](CC(N)=O)NC(=O)[C@H](N)Cc1ccc(O)cc1)C(=O)N[C@@H](Cc1ccccc1)C(N)=O` (H-[dY]NWNS[X1]L[Arg(Me)]F-NH2), the EC50 in [1] was 0.041 nM. Besides, the IC50 came to 2.8 nM in series [2] and 3.3 nM in series [8]. In addition, in [9], the remaining at 1 h, 100 µM amounted to 35.3%.

Turning to `CNC(N)=NCCC[C@H](NC(=O)[C@H](CC(C)C)NC(=O)NNC(=O)[C@H](Cc1ccccc1)NC(=O)[C@H](CO)NC(=O)[C@H](CC(N)=O)NC(=O)[C@@H](NC(=O)[C@H](CC(N)=O)NC(=O)[C@H](N)Cc1ccc(O)cc1)[C@@H](C)O)C(=O)N[C@@H](Cc1ccccc1)C(N)=O` (H-[dY]NTNSF[azaGly]L[Arg(Me)]F-NH2), the EC50 in [1] came to 0.24 nM. Also, the IC50 turned out to be 0.86 nM in [2] and 0.83 nM in [8]. Further, in series [9], the remaining at 1 h, 100 µM is 62.5%.

For `CC[C@H](C)[C@H](NC(=O)[C@H](CC(N)=O)NC(=O)[C@H](N)Cc1ccc(O)cc1)C(=O)N[C@@H](CC(N)=O)C(=O)N[C@@H](CO)C(=O)N[C@@H](Cc1ccccc1)C(=O)NNC(=O)N[C@@H](CC(C)C)C(=O)N[C@@H](CCCNC(=N)NC)C(=O)N[C@@H](Cc1ccccc1)C(N)=O` (H-[dY]NINSF[azaGly]L[Arg(Me)]F-NH2), in [1], the EC50 was 0.13 nM. Moreover, the IC50 in series [2] was found to be 0.43 nM; in series [8], 0.46 nM.

Regarding `CNC(N)=NCCC[C@H](NC(=O)[C@H](CC(C)C)NC(=O)NNC(=O)[C@H](Cc1ccccc1)NC(=O)[C@H](CO)NC(=O)[C@H](CC(N)=O)NC(=O)[C@@H](Cc1ccncc1)NC(=O)[C@H](CC(N)=O)NC(=O)[C@H](N)Cc1ccc(O)cc1)C(=O)N[C@@H](Cc1ccccc1)C(N)=O` (H-[dY]N[d4Pal]NSF[azaGly]L[Arg(Me)]F-NH2), in [1], the EC50 came to 0.59 nM. Moreover, the IC50 in series [2] and in [8] was 0.28 nM throughout.

Take `CNC(=N)NCCC[C@H](NC(=O)[C@H](CC(C)C)NC(=O)NNC(=O)[C@H](Cc1ccccc1)NC(=O)[C@H](CO)NC(=O)[C@H](CC(N)=O)NC(=O)[C@H](Cc1ccc2ccccc2c1)NC(=O)[C@H](CC(N)=O)NC(=O)[C@H](N)Cc1ccc(O)cc1)C(=O)N[C@@H](Cc1ccccc1)C(N)=O` (H-[dY]N[2Nal]NSF[azaGly]L[Arg(Me)]F-NH2): in [1], the 50% effective concentration (EC50) was determined as 0.098 nM. Besides, the IC50 was 0.13 nM in [2] and 0.2 nM in series [8]. For the same compound, the remaining at 1 h, 100 µM in [9] came out at 43.6%.

`CNC(N)=NCCC[C@H](NC(=O)[C@H](CC(C)C)NC(=O)CNC(=O)[C@H](Cc1ccccc1)NC(=O)[C@H](CO)NC(=O)[C@H](CC(N)=O)NC(=O)[C@H](Cc1c[nH]c2ccccc12)NC(=O)[C@H](CC(N)=O)NC(=O)[C@H](N)Cc1ccc(O)cc1)C(=O)N[C@@H](Cc1ccccc1)C(N)=O`: the EC50 in series [1] worked out at 0.065 nM. For the same compound, the IC50 in [2] was found to be 0.11 nM. For the same compound, in series [9], the remaining at 1 h, 100 µM amounted to 18.1%. In addition, the remaining at 5 min in [4] was found to be 90.7%. In series [5], the remaining at 10 min was 85.8%. In series [6], the remaining at 0.25 h worked out at 82.7%. The compound further registered a half-life in [7] of 1.25 h.

By EC50 is commonly meant the concentration that produces a half-maximal response. As a reminder, the IC50 is the concentration at which inhibition is half-maximal. The half-life is the time needed for the level to fall by half in the phase considered. Low values mean fast loss, high ones slow loss.
